Experimental data published in patent US20080107727A1, “Multiple Unit Oral Sustained Release Preparation and Production Method Thereof” (priority 2005, published 2008).

Assay: Gastrointestinal absorption of imidafenacin in rats, in-situ loop technique
Type: in vivo, Male Wistar rats
Conditions: rat in-situ loop, 0.2 mL of 500 μg/mL isotonic solution, after 1 hour
Procedure: In designing oral sustained release preparations of imidafenacin, it is necessary to know the absorption properties of imidafenacin in the gastrointestinal tract. We therefore examined the gastrointestinal absorption properties of imidafenacin in rats using the in-situ loop technique. The specific procedures were as follows: Male Wistar rats (aged 7 to 9 weeks) were dissected under anesthesia with pentobarbital sodium and the common bile duct was ligated. Loops were prepared from the stomach, duodenum, jejunum, ileum and colon. 0.2 mL each of an isotonic solution (500 μg/mL) of imidafenacin was injected into the loops in […]. After 1 hour, the lumen of the loops was washed sequentially with water and 0.01 mol/L hydrochloric acid and the wash was collected from each loop. The concentration of imidafenacin in the wash was determined by high performance liquid chromatography. The standard curve was determined by applying the least squares method to the ratio of the peak areas between the imidafenacin concentration for a similarly treated standard specimen and the concentration of internal standard of imidafenacin determined by chromatography. The concentration of imidafenacin in the wash for a specimen was determined by substituting the ratio of the peak area into the standard curve. The absorption of imidafenacin for each loop was calculated by the equations (1) and (2) below. The results are shown in FIG. 5. % Remaining imidafenacin in a loop=(Conc. of imidafenacin in the wash for the loop)×25 (1) % Absorption of imidafenacin in a loop=100-% Remaining imidafenacin in that loop (2)

For `Cc1nccn1CCC(C(N)=O)(c1ccccc1)c1ccccc1` [imidafenacin, 4-(2-methyl-1-imidazolyl)-2,2-diphenylbutylamide], the “absorption of imidafenacin in colon loop” value was “Some absorption”, the “absorption of imidafenacin in small intestine loops (duodenum, jejunum, ileum)” value was “effectively absorbed” and the “absorption of imidafenacin in stomach loop” value was “less significant”.
